# Laboratory results as given in patent US20080171783A1, “COMPOSITIONS AND METHODS FOR TREATING HYPERPROLIFERATIVE DISEASE” (Migenix Inc., priority 2006, published 2008).
# Columns and labels:
# Experiment in all cases: NCI In Vitro Cell Line Screening (SRB)
# [1] = test system: SNB-75; assay type: cell-based, human; conditions: SNB-75, CNS Cancer, 48 h
# [2] = test system: MCF7; assay type: cell-based, human; conditions: MCF7, Breast Cancer, 48 h
# [3] = test system: MOLT-4; assay type: cell-based, human; conditions: MOLT-4, Leukemia, 48 h
# [4] = test system: SF-268; assay type: cell-based, human; conditions: SF-268, CNS Cancer, 48 h
# [5] = test system: IGROV1; assay type: cell-based; conditions: IGROV1, Ovarian Cancer, 48 h
# [6] = test system: T-47D; assay type: cell-based, human; conditions: Breast Cancer, 48 h
# [7] = test system: HOP-92; assay type: cell-based, human; conditions: HOP-92, Non-Small Cell Lung Cancer, 48 h
# [8] = test system: CCRF-CEM; assay type: cell-based, human; conditions: Leukemia, 48 h
# [9] = test system: SR; assay type: cell-based; conditions: Leukemia, 48 h
# [10] = test system: HOP-62; assay type: cell-based, human; conditions: HOP-62, Non-Small Cell Lung Cancer, 48 h
# [11] = test system: OVCAR-3
# [12] = test system: SK-MEL-5; assay type: cell-based, human; conditions: SK-MEL-5, Melanoma, 48 h
# [13] = test system: HCT-116; assay type: cell-based, human; conditions: HCT-116, Colon Cancer, 48 h
# [14] = test system: U251; assay type: cell-based, human; conditions: U251, CNS Cancer, 48 h
# [15] = test system: MDA-MB-468
# [16] = test system: SW-620; assay type: cell-based; conditions: SW-620, Colon Cancer, 48 h
# [17] = test system: NCI/ADR-RES; assay type: cell-based, human; conditions: Breast Cancer, 48 h
# [18] = test system: NCI-H23; assay type: cell-based; conditions: NCI-H23, Non-Small Cell Lung Cancer, 48 h
# [19] = test system: SNB-19; assay type: cell-based, human; conditions: SNB-19, CNS Cancer, 48 h
# [20] = test system: HCT-15; assay type: cell-based, human; conditions: HCT-15, Colon Cancer, 48 h
# [21] = test system: OVCAR-5; assay type: cell-based, human; conditions: OVCAR-5, Ovarian Cancer, 48 h
# [22] = test system: NCI-H226; assay type: cell-based, human; conditions: NCI-H226, Non-Small Cell Lung Cancer, 48 h
# [23] = test system: MDA-MB-435; assay type: cell-based, human; conditions: MDA-MB-435, Breast Cancer, 48 h
# [24] = test system: EKVX; assay type: cell-based, human; conditions: Non-Small Cell Lung Cancer, 48 h
# [25] = test system: A549/ATCC; assay type: cell-based; conditions: Non-Small Cell Lung Cancer, 48 h
# [26] = test system: DU-145; assay type: cell-based, human; conditions: DU-145, Prostate Cancer, 48 h
# [27] = Homo sapiens, read-out: LC50 (the source's name)
smiles,measurement,setting,value
"Cc1ccc(NC(=O)[C@@H](CCCCN)NC(=O)Nc2ccc3c(c2)Cc2ccccc2-3)cc1 [Compound 173, (R)-6-AMINO-2-[3-(9H-FLUOREN-2-YL)-UREIDO]-HEXANOIC ACID P-TOLYLAMIDE]",GI50,[1]; Homo sapiens,1.61 µM
same,CC50,[1]; [27],> 100 µM
same,TGI,[1],4.65 µM
same,GI50,[2]; Homo sapiens,1.45 µM
same,CC50,[2]; [27],5.29 µM
same,TGI,[2],2.77 µM
same,GI50,[3]; Homo sapiens,1.93 µM
same,CC50,[3]; [27],17.5 µM
same,TGI,[3],4.43 µM
same,GI50,[4]; Homo sapiens,7.37 µM
same,LC50,[4]; Homo sapiens,51 µM
same,TGI,[4],21.8 µM
same,GI50,"[5]; Homo sapiens, IGROV-1",3.56 µM
same,CC50,"[5]; Homo sapiens, IGROV-1, read-out: LC50 (the source's name)",81 µM
same,TGI,[5],17.9 µM
same,TGI,[6],3.78 µM
same,GI50,"[6]; Homo sapiens, T47D",1.7 µM
same,CC50,"[6]; Homo sapiens, T47D, read-out: LC50 (the source's name)",8.41 µM
same,TGI,[7],5.13 µM
same,GI50,[7]; Homo sapiens,1.37 µM
same,CC50,[7]; [27],38.5 µM
same,GI50,[8]; Homo sapiens,1.97 µM
same,CC50,[8]; [27],> 100 µM
same,TGI,[8],5.15 µM
same,GI50,[9]; Homo sapiens,1.3 µM
same,TGI,[9],3.41 µM
same,TGI,[10],3.79 µM
same,GI50,[10]; Homo sapiens,1.88 µM
same,GI50,"[11]; Homo sapiens, OVCAR-3, 48 h",1.31 µM
same,CC50,"[11]; Homo sapiens, OVCAR-3, 48 h, read-out: LC50",31.6 µM
same,TGI,"[11]; OVCAR-3, Ovarian Cancer, 48 h",9.94 µM
same,GI50,[12]; Homo sapiens,1.03 µM
same,CC50,[12]; [27],68.3 µM
same,TGI,[12],26.5 µM
same,TGI,[13],4.40 µM
same,GI50,[13]; Homo sapiens,2.16 µM
same,GI50,"[14]; Homo sapiens, U-251",1.49 µM
same,CC50,"[14]; Homo sapiens, U-251, read-out: LC50 (the source's name)",5.3 µM
same,TGI,[14],2.80 µM
same,GI50,"[15]; Homo sapiens, MDA-MB-468, 48 h",1.66 µM
same,CC50,"[15]; Homo sapiens, MDA-MB-468, 48 h, read-out: LC50",8.31 µM
same,TGI,"[15]; MDA-MB-468, Breast Cancer, 48 h",3.72 µM
same,GI50,[16]; Homo sapiens,1.67 µM
same,CC50,[16]; [27],6.12 µM
same,TGI,[16],3.19 µM
same,TGI,[17],>100 µM
same,GI50,[17]; Homo sapiens,> 100 µM
same,CC50,[17]; [27],> 100 µM
same,GI50,[18]; Homo sapiens,3.45 µM
same,LC50 (concentration giving 50% net cell kill),[18]; Homo sapiens,> 100 µM
same,TGI,[18],19.6 µM
same,GI50,[19]; Homo sapiens,1.59 µM
same,TGI,[19],3.21 µM
same,TGI,[20],87.8 µM
same,GI50,[20]; Homo sapiens,23.9 µM
same,CC50,[20]; [27],> 100 µM
same,GI50,[21]; Homo sapiens,1.92 µM
same,CC50,[21]; [27],6.57 µM
same,TGI,[21],3.55 µM
same,GI50,[22]; Homo sapiens,1.62 µM
same,LC50 (concentration killing 50% of cells),[22]; Homo sapiens,45.6 µM
same,TGI,[22],9.56 µM
same,GI50,[23]; Homo sapiens,1.98 µM
same,CC50,[23]; [27],24.3 µM
same,TGI,[23],6.21 µM
same,GI50,[24]; Homo sapiens,1.19 µM
same,LC50,[24]; Homo sapiens,> 100 µM
same,TGI,[24],46.2 µM
same,GI50,[25]; Homo sapiens,1.55 µM
same,CC50,[25]; [27],7.66 µM
same,TGI,[25],3.45 µM
same,TGI,[26],20.0 µM
same,GI50,[26]; Homo sapiens,6.94 µM
same,CC50,[26]; [27],46.3 µM
